Experimental data reported in PubChem BioAssay (NCI).
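Tested at 5 concentrations; 48 h exposure; 96-well plates; endpoints linearly interpolated, else capped at highest concentration. TGI denotes the concentration required for complete inhibition of growth.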

Columns and labels:
Assay in all cases: DTP human tumour cell line panel, 48 h
HOP-92 NSCLC = system: HOP-92 NSCLC
SK-MEL-5 melanoma = system: SK-MEL-5 melanoma
EKVX NSCLC = system: EKVX NSCLC
A498 renal = system: A498 renal
SN12C renal = system: SN12C renal
MDA-MB-435 = system: MDA-MB-435
UACC-62 melanoma = system: UACC-62 melanoma
SNB-19 CNS = system: SNB-19 CNS
M14 melanoma = system: M14 melanoma
HT29 colon = system: HT29 colon
NCI-H226 lung = system: NCI-H226 lung
HL-60(TB) leukemia = system: HL-60(TB) leukemia
IGROV1 ovarian = system: IGROV1 ovarian
SF-539 CNS = system: SF-539 CNS
OVCAR-5 ovarian = system: OVCAR-5 ovarian
OVCAR-8 ovarian = system: OVCAR-8 ovarian
MCF7 breast = system: MCF7 breast
RPMI-8226 leukemia = system: RPMI-8226 leukemia
K-562 leukemia = system: K-562 leukemia

| SMILES | TGI (HOP-92 NSCLC) [µM] | TGI (SK-MEL-5 melanoma) [µM] | TGI (EKVX NSCLC) [µM] | TGI (A498 renal) [µM] | TGI (SN12C renal) [µM] | TGI (MDA-MB-435) [µM] | TGI (UACC-62 melanoma) [µM] | TGI (SNB-19 CNS) [µM] | TGI (M14 melanoma) [µM] | TGI (HT29 colon) [µM] | TGI (NCI-H226 lung) [µM] | TGI (HL-60(TB) leukemia) [µM] | TGI (IGROV1 ovarian) [µM] | TGI (SF-539 CNS) [µM] | TGI (OVCAR-5 ovarian) [µM] | TGI (OVCAR-8 ovarian) [µM] | TGI (MCF7 breast) [µM] | TGI (RPMI-8226 leukemia) [µM] | TGI (K-562 leukemia) [µM] |
| --- | --- | --- | --- | --- | --- | --- | --- | --- | --- | --- | --- | --- | --- | --- | --- | --- | --- | --- | --- |
| CCOC(=O)c1cc(=O)c2ccnc3c2n1CCS3 | > 100 | > 100 | > 100 | > 100 | > 100 | > 100 | > 100 | > 100 | > 100 | > 100 | > 100 | > 100 | > 100 | > 100 | > 100 | > 100 | > 100 |  |  |
| O=C(O)Cc1c(-c2ccc([N+](=O)[O-])cc2)c(=O)oc2cc(O)ccc12 |  | 33.3 | 83 | 70.2 | > 100 | 93.9 | > 100 | > 100 | > 100 | > 100 | > 100 | 39.4 | > 100 | 82 | 98.9 | 74.1 | 75.7 | 61.7 | > 100 |
| Cc1cc2c(cc1Cl)SC(NNC(=O)c1ccco1)=NS2(=O)=O |  | > 10 | > 10 | > 10 | > 10 | > 10 | > 10 | > 10 | > 10 | > 10 | > 10 | > 10 | > 10 | > 10 | > 10 | > 10 | > 10 | > 10 | > 10 |
| COc1ccc(/C=C2\CCC(CNc3ccc(S(N)(=O)=O)cc3)C2=O)cc1 (configuration not stated) | 22.5 | 31.8 | > 69.2 | > 86 | 35.9 | 41.3 | 50.6 | > 65.9 | 36.4 | 25.9 | > 100 | 7.73 | 43.4 | > 59.2 | 42.6 | 35.4 | 14.7 |  | 3.74 |
| COC(=O)C(Cc1ccccc1)NP(=O)(O)OCC1OC(n2cc(Br)c(=O)[nH]c2=O)CC1O (configuration not stated) | > 100 | > 100 | > 100 | > 100 | > 100 | > 100 | > 100 | > 100 | > 100 | > 100 | > 100 | > 100 | > 100 | > 100 | > 100 | > 100 | > 100 |  | > 100 |
| CCN1CCC(O)(c2ccc(Oc3ccccc3)cc2)C(C(=O)c2ccc(Oc3ccccc3)cc2)C1 (configuration not stated) | 22.3 | 25.7 | 36.9 | 30.4 | 29.5 | 26.2 | 25.9 | 32.6 | 26.3 | 26.4 |  | 14.1 | 33 | 23.4 | 31.3 | 38.6 | 19.5 | 5.63 | > 100 |
| S=c1nc(N2CCCCC2)c2cn[nH]c2[nH]1 |  | > 100 | > 100 | > 100 | > 100 | > 100 | > 100 | > 100 | > 100 | > 100 | > 100 | 69.9 | 56.5 | > 100 | > 100 | > 100 | > 100 | > 100 | > 100 |
| CN(C)CCCNC(=O)c1c(O)c2ccccc2[nH]c1=O | > 100 | > 100 | > 100 | > 100 | > 100 | > 100 | > 100 |  |  | > 100 | > 100 | > 100 | > 100 | > 100 | > 100 | > 100 | > 100 | > 100 | > 100 |
| COc1c2cc(C(C)(C)C)cc1Cc1cccc(c1OCc1cccc([N+](=O)[O-])c1)Cc1cc(C(C)(C)C)cc(c1OC)Cc1cccc(c1OCc1cccc([N+](=O)[O-])c1)Cc1cc(C(C)(C)C)cc(c1OC)Cc1cccc(c1OCc1cccc([N+](=O)[O-])c1)C2 | > 50 | > 50 | > 50 | > 50 | > 50 | > 50 | > 50 | > 50 | > 50 | > 50 |  | > 50 | > 50 | > 50 | > 50 | > 50 | > 50 | > 50 | > 50 |
| CC(=O)OC/C=C/[C@H](O[Si](C)(C)C(C)(C)C)[C@@H](O)/C=C/COC(C)=O | > 100 | > 100 | > 100 | > 100 | > 100 | > 100 | > 100 | > 100 | > 100 | > 100 | > 100 |  | > 100 | > 100 | > 100 | > 100 | > 100 | 43.7 | 52.8 |
| O=C(c1ccccc1)n1c(Cc2ccccc2)nc2cc(C34CC5CC(CC(C5)C3)C4)ccc21 | > 100 | 56.5 | > 100 | > 100 | > 100 | > 100 | > 100 | > 100 | > 100 | > 100 | > 100 | > 100 | > 100 |  | > 100 | > 100 | 90 | > 100 | > 100 |
| O=c1cc(-c2ccccc2)[nH]c2ccc(N3CCOCC3)cc12 | 44.1 | 14.3 | > 100 | 73.5 | > 95.3 | > 100 | > 100 | > 87.5 | > 79.2 |  | 0.253 |  | > 100 | 0.615 | > 100 | > 100 | > 93.5 | > 100 | > 100 |
| CN(CCNC(=O)c1nn(-c2ccccc2)c2c1Cc1ccccc1-2)CCNC(=O)c1nn(-c2ccccc2)c2c1Cc1ccccc1-2 | 3.01 | 3.38 | 9.65 | 3.36 | 3.61 | 3.17 | 3.1 | 4.43 | 3.27 | 3.73 |  | 2.91 | 3.31 | 4.11 | 6.8 | 3.17 | 3.19 | 14.1 | 6.59 |
| COc1cc(C=O)cc(/C=N/n2c3ccccc3c3ccccc32)c1O | 9.58 |  | > 100 | 48.7 | > 100 | 47.5 | > 100 | > 100 | > 100 | > 100 | > 100 | > 100 |  | > 100 | > 100 | > 100 | 42.6 | 46.2 | 67.7 |
| COc1cc(C2=C(c3cc(OC)c4ccccc4c3OC)C(=O)c3ccccc3C2=O)c(OC)c2ccccc12 | > 100 | > 100 | > 100 | > 100 | > 100 | > 100 | > 100 | > 100 | > 100 | > 100 | > 100 | > 100 | > 100 | > 100 | > 100 | > 100 | > 100 |  |  |
| NC(=O)Nc1ccc(S(=O)(=O)Nc2ccc(S(N)(=O)=O)cc2)cc1 | > 100 | > 100 | > 100 | > 100 | > 100 | > 100 | > 100 | > 100 | > 100 | > 100 | > 100 |  | > 100 |  | > 100 | > 100 | > 100 | > 100 | > 100 |
| CN1CCc2c3n(c4cc(Br)ccc24)[C@H](O)CCCC31 (some centres not stated) | > 9.12 | > 8.72 | > 10 | > 10 | > 10 | 3.27 |  | > 10 | 3.24 | 3.28 | > 10 | 4.15 | > 10 | 3.5 | > 10 | 3.43 | 3.24 | 5.36 | 1.88 |
| COC(=O)C1CC2CCC1(O[Si](C(C)C)(C(C)C)C(C)C)C(O)C2 (configuration not stated) |  | 61.7 | 33.6 | > 100 | 34.5 | 30.9 | > 100 | 44.2 | 32.7 | 30.2 | 40.7 | > 100 | 94 |  | 27.2 | 28.1 | 28.4 | 40.7 | 28.9 |
| CN1CC[C@]23c4c5ccc(O)c4O[C@H]2C(O)CC[C@@]3(O)[C@H]1C5 (some centres not stated) | > 100 | > 100 | > 100 | > 100 | > 100 | > 100 | > 100 | > 100 | > 100 | > 100 | > 100 | > 100 | > 100 | > 100 | > 100 | > 100 | > 100 | > 100 |  |
| CN1Cc2cc3cc4c(cc3nc2N(C)C1)OCCO4 | > 100 | > 100 | > 100 | > 100 | > 100 | > 100 | > 100 | > 100 | > 100 | > 100 | > 100 |  | > 100 | > 100 | > 100 | > 100 | > 100 | > 100 | > 100 |
| O=C(O)c1cc(CC2Cc3cc4c(cc3C2=O)CCC4)cc2c1CCC2 (configuration not stated) |  |  | > 100 | > 100 | > 100 | > 100 | > 100 | > 100 | > 100 | > 100 | > 100 | > 100 | > 100 | > 100 | > 100 | > 100 | > 100 | > 100 | > 100 |
| Cc1cc(-c2cccc3ccccc23)c(C#N)c(=S)n1C1OC(CO)C(O)C(O)C1O (configuration not stated) |  | > 100 | > 100 | > 100 | > 100 | > 100 | > 100 |  | > 100 | > 100 | > 100 | > 100 | > 100 | > 100 | > 100 | > 100 | > 100 |  |  |
| CC1OC(OC2C(O)COC(OC3C(C)OC(OC4C(OC(=O)[C@]56CCC(C)(C)C[C@@H]5C5=CCC7[C@@]8(C)C[C@H](O)[C@H](OC9OC(CO)C(O)C(OC%10OC(CO)C(O)C(O)C%10O)C9O)[C@@](C)(CO)[C@@H]8CC[C@@]7(C)[C@]5(C)CC6)OCC(O)C4O)C(O)C3OC3OCC(O)(CO)C3O)C2O)C(O)C(O)C1O (some centres not stated) | 19.7 | 15.8 | 13.2 | 20.4 | 12 | 24.4 | 22.9 | 16.6 | 13 |  | 23.4 |  |  | 17.5 | 17.4 | 18.9 | 29.4 | 50 | 50 |
| OC1c2ccccc2CC12Cc1ccccc1C2 (configuration not stated) | > 100 | 49.6 | > 100 | > 100 | > 100 | > 100 |  | > 100 | > 100 | > 100 | 25.1 | > 100 | > 100 | > 100 | > 100 | > 100 | > 100 | > 100 | > 100 |
| Cc1ccc2nc(Cl)c(/C=N/N3C(=O)/C(=C/c4cccc([N+](=O)[O-])c4)N=C3c3ccccc3)cc2c1 | > 100 | > 100 | > 100 | 52.3 | > 100 | 54.5 | > 100 | > 100 | > 100 | > 100 |  | > 100 | > 100 | > 100 | > 100 | > 100 | 93.7 | > 100 | > 100 |
